EC50 and Emax data for seven compounds are collected here from US11725036B2, “Modified lipidated relaxin B chain peptides and their therapeutic use” (Sanofi, priority 2018, dated 2023).

The test addresses T1, RXFP1 (Homo sapiens, UniProt Q9HBX9).
T1 construct: OVCAR5 cells expressing endogenous RXFP1; endogenous in cells; host or cells: OVCAR5
T1 sequence (Q9HBX9 1-757): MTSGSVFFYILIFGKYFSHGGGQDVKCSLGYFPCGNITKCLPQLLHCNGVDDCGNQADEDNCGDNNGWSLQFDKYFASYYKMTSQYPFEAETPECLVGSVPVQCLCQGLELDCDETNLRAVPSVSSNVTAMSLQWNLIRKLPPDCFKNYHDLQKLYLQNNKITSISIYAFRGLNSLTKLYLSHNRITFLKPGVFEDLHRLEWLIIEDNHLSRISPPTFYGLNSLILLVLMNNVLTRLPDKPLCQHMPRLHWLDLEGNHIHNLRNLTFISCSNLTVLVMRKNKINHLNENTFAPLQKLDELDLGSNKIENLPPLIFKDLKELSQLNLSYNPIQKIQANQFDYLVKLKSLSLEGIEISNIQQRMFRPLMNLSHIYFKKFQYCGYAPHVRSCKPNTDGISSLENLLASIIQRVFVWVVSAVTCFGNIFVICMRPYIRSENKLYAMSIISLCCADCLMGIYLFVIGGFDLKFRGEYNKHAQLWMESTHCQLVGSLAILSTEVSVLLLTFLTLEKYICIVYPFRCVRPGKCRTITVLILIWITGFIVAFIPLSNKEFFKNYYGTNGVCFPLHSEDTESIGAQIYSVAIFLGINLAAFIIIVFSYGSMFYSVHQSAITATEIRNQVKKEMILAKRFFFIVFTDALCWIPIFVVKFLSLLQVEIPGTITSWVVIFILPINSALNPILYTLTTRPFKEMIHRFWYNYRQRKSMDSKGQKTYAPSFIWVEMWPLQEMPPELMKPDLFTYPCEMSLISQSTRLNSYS
The test can be described thus: OVCAR5 cAMP assay (HTRF). The test is classed as cell-based. The following applies: for EC50: OVCAR 5 cells expressing endogenous RXFP1, cAMP readout; for Emax: OVCAR 5 cells, maximal cAMP relative to H2-relaxin. The procedure, abridged:
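Peptide agonism measured as intracellular cAMP (HTRF) after 30 min at 37° C in serum-free medium, following 40 min 1 mM IBMX preincubation of OVCAR5 cells. Nonlinear regression gave EC50; Emax % = 100 × compound maximal cAMP / H2-relaxin maximal cAMP.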

Starred links: 1 amine or outer side, 2 acyl side, 3 side chain; linkers in the order of their positions; H or OH if unused. Non-standard residues stand in square brackets, D forms with d. Residues, ends and D or L forms follow the SMILES beside them. Groups on a side chain read outwards from the residue. *: point of attachment. X15 = CCCCCCCCCCCCCCCCCC(=O)N[C@@H](CCC(=O)N[C@@H](CCC(=O)N[C@@H](CCC(=O)NCCCOCCOCCOCCCNC(=O)COCC(=O)NCCCOCCOCCOCCCNC(=O)COCC(=O)NCCCOCCOCCOCCCNC(=O)COCC(=O)*)C(=O)O)C(=O)O)C(=O)O; X3 = CCCCCCCCCCCCCCCCCC(=O)N[C@@H](CCC(=O)N[C@@H](CCC(=O)N[C@@H](CCC(=O)NCCCOCCOCCOCCCNC(=O)CCC(=O)NCCCOCCOCCOCCCNC(=O)CCC(=O)NCCCOCCOCCOCCCN*)C(=O)O)C(=O)O)C(=O)O; X1 = CCCCCCCCCCCCCCCC(=O)N[C@@H](CCC(=O)N[C@@H](CCC(=O)N[C@@H](CCC(=O)NCCCOCCOCCOCCCNC(=O)CCC(=O)NCCCOCCOCCOCCCNC(=O)CCC(=O)NCCCOCCOCCOCCCN*)C(=O)O)C(=O)O)C(=O)O; γGlu = O=C(O)[C@H](CCC(=O)[*:2])N[*:1]; Palmitoyl = CCCCCCCCCCCCCCCC(=O)*; Suc = O=C(CCC(=O)[*:2])[*:1]; αMeK = C[C@](N)(CCCCN)C(=O)O; AEEA = NCCOCCOCC(=O)O; Aib = CC(C)(N)C(=O)O

Turning to `CCCCCCCCCCCCCCCC(=O)N[C@@H](CCC(=O)N[C@@H](CCC(=O)N[C@@H](CCC(=O)NCCCOCCOCCOCCCNC(=O)CCC(=O)NCCCOCCOCCOCCCNC(=O)CCC(=O)NCCCOCCOCCOCCCNC(=O)CCC(=O)NCCCC[C@H](NC(=O)CNC(=O)[C@H](CCC(=O)O)NC(=O)[C@@H](NC(=O)C(C)(C)NC(=O)[C@@H](NC(=O)[C@H](CCCCNC(C)=O)NC(=O)[C@H](C)NC(=O)[C@H](CCCNC(=N)N)NC(=O)[C@@H](NC(=O)[C@H](CCCCN)NC(=O)[C@H](CCC(=O)O)NC(=O)[C@H](CCCNC(=N)N)NC(=O)CNC(=O)[C@H](CCC(=O)O)NC(=O)C(C)(C)NC(C)=O)C(C)C)[C@@H](C)CC)[C@@H](C)CC)C(=O)N[C@@H](CO)C(=O)N[C@H](C(=O)N[C@@H](Cc1ccccc1)C(=O)N[C@@H](CO)C(=O)N[C@@](C)(CCCCN)C(=O)N[C@@H](CCCNC(=N)N)C(=O)N[C@@H](C)C(=O)N[C@@H](CCCCNC(C)=O)C(N)=O)[C@@H](C)O)C(=O)O)C(=O)O)C(=O)O` [compound 86] (Ac-[Aib]EGREKVRAK(Ac)I[Aib]IEGK([Suc-X1])STFS[αMeK]RAK(Ac)-NH2), it took 0.3 nM to reach a half-maximal effect (EC50) and the Emax – broadly, the maximal effect, on the per cent scale that the assay sets – was 95%.
Regarding `CCCCCCCCCCCCCCCCCC(=O)N[C@@H](CCC(=O)N[C@@H](CCC(=O)N[C@@H](CCC(=O)NCCCOCCOCCOCCCNC(=O)CCC(=O)NCCCOCCOCCOCCCNC(=O)CCC(=O)NCCCOCCOCCOCCCNC(=O)CCC(=O)NCCCC[C@H](NC(=O)CNC(=O)[C@H](CCC(=O)O)NC(=O)C(C)(C)NC(=O)C(C)(C)NC(=O)[C@@H](NC(=O)[C@H](CCCCNC(C)=O)NC(=O)[C@H](C)NC(=O)[C@H](CCCNC(=N)N)NC(=O)[C@@H](NC(=O)[C@H](CCCCN)NC(=O)[C@H](CCC(=O)O)NC(=O)[C@H](CCCNC(=N)N)NC(=O)CNC(=O)[C@H](CCC(=O)O)NC(=O)[C@H](CC(C)C)NC(C)=O)C(C)C)[C@@H](C)CC)C(=O)N[C@@H](CO)C(=O)N[C@H](C(=O)N[C@@H](Cc1c[nH]c2ccccc12)C(=O)N[C@@H](CO)C(=O)N[C@@](C)(CCCCN)C(=O)N[C@@H](CCCNC(=N)N)C(=O)N[C@@H](C)C(=O)N[C@@H](CCCCNC(C)=O)C(N)=O)[C@@H](C)O)C(=O)O)C(=O)O)C(=O)O` [compound 30] (Ac-LEGREKVRAK(Ac)I[Aib][Aib]EGK([Suc-X3])STWS[αMeK]RAK(Ac)-NH2), the response was half-maximal at 0.21 nM (EC50) and the Emax is 89%.
For `CCCCCCCCCCCCCCCC(=O)N[C@@H](CCC(=O)N[C@@H](CCC(=O)N[C@@H](CCC(=O)NCCCOCCOCCOCCCNC(=O)CCC(=O)NCCCOCCOCCOCCCNC(=O)CCC(=O)NCCCOCCOCCOCCCNC(=O)CCC(=O)NCCCC[C@H](NC(=O)CNC(=O)[C@H](CCC(=O)O)NC(=O)C(C)(C)NC(=O)C(C)(C)NC(=O)[C@@H](NC(=O)[C@H](CCCCNC(C)=O)NC(=O)[C@H](C)NC(=O)[C@H](CCCNC(=N)N)NC(=O)[C@@H](NC(=O)[C@H](CCCCN)NC(=O)[C@H](CCC(=O)O)NC(=O)[C@H](CCCNC(=N)N)NC(=O)CNC(=O)[C@H](CCC(=O)O)NC(=O)[C@H](CC(C)C)NC(C)=O)C(C)C)[C@@H](C)CC)C(=O)N[C@@H](CO)C(=O)N[C@H](C(=O)N[C@@H](Cc1ccccc1)C(=O)N[C@@H](CO)C(=O)N[C@H](CCCCN)C(=O)N[C@@H](CCCNC(=N)N)C(=O)N[C@@H](C)C(=O)N[C@@H](CCCCNC(C)=O)C(N)=O)[C@@H](C)O)C(=O)O)C(=O)O)C(=O)O` [compound 36] (Ac-LEGREKVRAK(Ac)I[Aib][Aib]EGK([Suc-X1])STFS[dK]RAK(Ac)-NH2), in that order: 3.6 nM and 93%.
With `CCCCCCCCCCCCCCCC(=O)N[C@@H](CCC(=O)N[C@@H](CCC(=O)N[C@@H](CCC(=O)NCCCOCCOCCOCCCNC(=O)CCC(=O)NCCCOCCOCCOCCCNC(=O)CCC(=O)NCCCOCCOCCOCCCNC(=O)CCC(=O)NCCCC[C@H](NC(=O)CNC(=O)[C@H](CCC(=O)O)NC(=O)C(C)(C)NC(=O)C(C)(C)NC(=O)[C@@H](NC(=O)[C@H](CCCCNC(C)=O)NC(=O)C(C)(C)NC(=O)[C@H](CCCNC(=N)N)NC(=O)[C@@H](NC(=O)[C@H](CCCCN)NC(=O)[C@H](CCC(=O)O)NC(=O)[C@H](CCCNC(=N)N)NC(=O)CNC(=O)[C@H](CCC(=O)O)NC(=O)[C@H](CC(C)C)NC(C)=O)C(C)C)[C@@H](C)CC)C(=O)N[C@@H](CO)C(=O)N[C@H](C(=O)N[C@@H](Cc1ccccc1)C(=O)N[C@@H](CO)C(=O)N[C@@](C)(CCCCN)C(=O)N[C@@H](CCCNC(=N)N)C(=O)N[C@@H](C)C(=O)N[C@@H](CCCCNC(C)=O)C(N)=O)[C@@H](C)O)C(=O)O)C(=O)O)C(=O)O` [compound 29] (Ac-LEGREKVR[Aib]K(Ac)I[Aib][Aib]EGK([Suc-X1])STFS[αMeK]RAK(Ac)-NH2), the EC50 (usually the concentration giving half of the maximal effect) amounted to 1.6 nM and the Emax was 88%.
In the case of `CCCCCCCCCCCCCCCCCC(=O)N[C@@H](CCC(=O)N[C@@H](CCC(=O)N[C@@H](CCC(=O)NCCCOCCOCCOCCCNC(=O)COCC(=O)NCCCOCCOCCOCCCNC(=O)COCC(=O)NCCCOCCOCCOCCCNC(=O)COCC(=O)NCCCC[C@H](NC(=O)CNC(=O)[C@H](CCC(=O)O)NC(=O)C(C)(C)NC(=O)C(C)(C)NC(=O)[C@@H](NC(=O)[C@H](CCCCNC(C)=O)NC(=O)[C@H](C)NC(=O)[C@H](CCCNC(=N)N)NC(=O)[C@@H](NC(=O)[C@H](CCCCN)NC(=O)[C@H](CCC(=O)O)NC(=O)[C@H](CCCNC(=N)N)NC(=O)CNC(=O)[C@H](CCC(=O)O)NC(=O)[C@H](CC(C)C)NC(C)=O)C(C)C)[C@@H](C)CC)C(=O)N[C@@H](CO)C(=O)N[C@H](C(=O)N[C@@H](Cc1ccccc1)C(=O)N[C@@H](CO)C(=O)N[C@@](C)(CCCCN)C(=O)N[C@@H](CCCNC(=N)N)C(=O)N[C@@H](C)C(=O)N[C@@H](CCCCNC(C)=O)C(N)=O)[C@@H](C)O)C(=O)O)C(=O)O)C(=O)O` [compound 32] (Ac-LEGREKVRAK(Ac)I[Aib][Aib]EGK(X15)STFS[αMeK]RAK(Ac)-NH2), the EC50 worked out at 0.1 nM and the Emax was 97%.
Compound `CCCCCCCCCCCCCCCC(=O)N[C@@H](CCC(=O)N[C@@H](CCC(=O)N[C@@H](CCC(=O)NCCOCCOCC(=O)NCCOCCOCC(=O)NCCOCCOCC(=O)NCCOCCOCC(=O)NCCOCCOCC(=O)NCCCC[C@H](NC(=O)CNC(=O)[C@H](CCC(=O)O)NC(=O)C(C)(C)NC(=O)C(C)(C)NC(=O)[C@@H](NC(=O)[C@H](CCCCNC(C)=O)NC(=O)[C@H](C)NC(=O)[C@H](CCCNC(=N)N)NC(=O)[C@@H](NC(=O)[C@H](CCCCN)NC(=O)[C@H](CCC(=O)O)NC(=O)[C@H](CCCNC(=N)N)NC(=O)CNC(=O)[C@H](CCC(=O)O)NC(=O)[C@H](CC(C)C)NC(C)=O)C(C)C)[C@@H](C)CC)C(=O)N[C@@H](CO)C(=O)N[C@H](C(=O)N[C@@H](Cc1ccccc1)C(=O)N[C@@H](CO)C(=O)N[C@@](C)(CCCCN)C(=O)N[C@@H](CCCNC(=N)N)C(=O)N[C@@H](C)C(=O)N[C@@H](CCCCNC(C)=O)C(N)=O)[C@@H](C)O)C(=O)O)C(=O)O)C(=O)O` [compound 45] (Ac-LEGREKVRAK(Ac)I[Aib][Aib]EGK([AEEA-AEEA-AEEA-AEEA-AEEA-γGlu-γGlu-γGlu-Palmitoyl])STFS[αMeK]RAK(Ac)-NH2) registered an EC50 of 0.45 nM and an Emax of 96%.
The corresponding values for `CCCCCCCCCCCCCCCC(=O)N[C@@H](CCC(=O)N[C@@H](CCC(=O)N[C@@H](CCC(=O)NCCCOCCOCCOCCCNC(=O)CCC(=O)NCCCOCCOCCOCCCNC(=O)CCC(=O)NCCCOCCOCCOCCCNC(=O)CCC(=O)NCCCC[C@H](NC(=O)CNC(=O)[C@H](CCC(=O)O)NC(=O)C(C)(C)NC(=O)[C@H](C)NC(=O)[C@@H](NC(=O)[C@H](CCCCNC(C)=O)NC(=O)[C@H](C)NC(=O)[C@H](CCCNC(=N)N)NC(=O)[C@@H](NC(=O)[C@H](CCCCN)NC(=O)[C@H](CCC(=O)O)NC(=O)[C@H](CCCNC(=N)N)NC(=O)CNC(=O)[C@H](CCC(=O)O)NC(=O)[C@H](CC(C)C)NC(C)=O)C(C)C)[C@@H](C)CC)C(=O)N[C@@H](CO)C(=O)N[C@H](C(=O)N[C@@H](Cc1ccccc1)C(=O)N[C@@H](CO)C(=O)N[C@@](C)(CCCCN)C(=O)N[C@@H](CCCNC(=N)N)C(=O)N[C@@H](C)C(=O)N[C@@H](CCCCNC(C)=O)C(N)=O)[C@@H](C)O)C(=O)O)C(=O)O)C(=O)O` [compound 90] (Ac-LEGREKVRAK(Ac)IA[Aib]EGK([Suc-X1])STFS[αMeK]RAK(Ac)-NH2) are 0.14 nM and 97%.
